Test results: patent publication US10457707B2, “Substituted urea depsipeptide analogs as activators of the CLPP endopeptidase” (priority 2015, dated 2019)
Converted amounts (≈) assume the structure as drawn. Where two headings read alike, the source gives them in different places. *1 amine or outer side, *2 acyl side, *3 side chain or, on linkers, in order; H or OH if unused. Where a SMILES comes first, the peptide text is derived from it. Bridges are numbered along the chain shown (N, C = ends). [ ]: non-standard residue; d: D form. The star is where a group is joined. Phe(3,5-F2) = N[C@@H](Cc1cc(F)cc(F)c1)C(=O)O; NH(4-OCF3-phenyl) = FC(F)(F)Oc1ccc(N*)cc1; Morpholine(3S-CO) = O=C(O)[C@@H]1COCCN1; Pro(4S-Me) = C[C@@H]1CN[C@H](C(=O)O)C1; NH(4-Cl-2-F-phenyl) = Fc1cc(Cl)ccc1N*; Pro(4R-Me) = C[C@H]1CN[C@H](C(=O)O)C1; Hyp = O=C(O)[C@@H]1C[C@@H](O)CN1; NH(4-Et-phenyl) = CCc1ccc(N*)cc1; NMeT = CN[C@H](C(=O)O)[C@@H](C)O; Heptenoyl(2E) = CCCC/C=C/C(=O)*; NH(4-Me-phenyl) = Cc1ccc(N*)cc1; aThr = C[C@H](O)[C@H](N)C(=O)O; Pip = O=C(O)[C@@H]1CCCCN1; X8 = c1cc2c(cc1N*)CCO2; X6 = Cc1cc(C)cc(N*)c1; CO = O=C([*:1])[*:2]; X7 = CC/C=C/C(=O)*

Columns and labels:
Assay type in all cases: cell-based
[1] = Cytotoxicity assay (CellTiter-Glo cell viability, 72 hours); settings: African green monkey
Summary of the method: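 Vero cells, 5000/well, grown overnight at 37° C, 5% CO2 in DMEM with 10% FBS, then exposed to serial compound dilutions or DMSO for 72 hours. Viability read by CellTiter-Glo luminescence. IC50 from duplicate wells, reported as range over two independent experiments.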

[2] = system: Streptococcus pneumoniae, R6; assay: Minimal inhibitory concentration assay; settings: read-out: Minimal Inhibitory Concentrations S. pneumoniae R6
Summary of the method: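 Microbroth dilution with two-fold serial compound dilutions in broth, incubated aerobically overnight at 37° C. MIC taken as the lowest concentration preventing bacterial growth.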

[3] = system: Staphylococcus aureus, USA 300 wherein ClpP is inactivated; assay: Minimal inhibitory concentration assay
Summary of the method: (§1)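 Broth microdilution per CLSI M7-A7: two-fold serial dilutions of compound in broth (top final concentration 200 μM) were inoculated with ~10^5 cfu/mL bacteria and incubated aerobically overnight at 37 °C. MIC was read visually as the lowest concentration preventing growth.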

[4] = system: Staphylococcus aureus, USA 300; assay: Minimal inhibitory concentration assay; settings: USA300, read-out: Minimal Inhibitory Concentrations S. aureus USA 300
Summary of the method: as §1

[5] = system: Enterococcus faecalis, ATCC 33186; assay: Minimal inhibitory concentration assay (microbroth dilution)
Summary of the method: as §1

[6] = Vero cells, 72 hours, growth inhibition, read-out: Cytotoxicity IC50
[7] = Enterococcus faecalis, ATCC33186, read-out: Minimal Inhibitory Concentrations E. faecalis ATCC 33186
[8] = Enterococcus faecalis, ATCC33186; read-out: Minimal Inhibitory Concentrations E. faecalis ATCC 33186

SMILES | IC50 at 72 h [1] [µM] | MIC [2] [µM] | Minimal Inhibitory Concentrations S. aureus USA 300 ΔClpP [3] [µM] | MIC [4] [µM] | IC50 at 72 h [1, 6] [µM] | MIC [5, 7] [µM] | MIC [5, 8] [µM]
C[C@@H]1C[C@H]2C(=O)OC[C@H](NC(=O)[C@H](Cc3ccccc3)NC(=O)Nc3ccc4c(c3)OCO4)C(=O)N3CCC[C@H]3C(=O)N3CCCC[C@H]3C(=O)N[C@@H](C)C(=O)N2C1 [Compound 194, (S)-2-(3-(benzo[d][1,3]dioxol-5-yl)ureido)-N-((2R,6S,8aS,14aS,20S,23aS)-2,6-dimethyl-5,8,14,19,23-pentaoxooctadecahydro-1H,5H,14H,19H-pyrido[2,1-i]dipyrrolo[2,1-c:2′,1′-l][1]oxa[4,7,10,13]tetraazacyclohexadecin-20-yl)-3-phenylpropanamide] | > 100 | < 0.2 |  |  |  |  | 
C[C@@H]1C[C@H]2C(=O)OC[C@H](NC(=O)[C@H](Cc3cc(F)cc(F)c3)NC(=O)Nc3ccc4c(c3)OCO4)C(=O)N3CCC[C@H]3C(=O)N3CCCC[C@H]3C(=O)N[C@@H](C)C(=O)N2C1 [Compound 195, (S)-2-(3-(benzo[d][1,3]dioxol-5-yl)ureido)-3-(3,5-difluorophenyl)-N-((2R,6S,8aS,14aS,20S,23aS)-2,6-dimethyl-5,8,14,19,23-pentaoxooctadecahydro-1H,5H,14H,19H-pyrido[2,1-i]dipyrrolo[2,1-c:2′,1′-l][1]oxa[4,7,10,13]tetraazacyclohexadecin-20-yl)propanamide] | 84.1 ± 8.3 | 0.1 (≈ 0.0824 µg/mL) |  |  |  |  | 
Cc1ccc(NC(=O)N[C@@H](Cc2cc(F)cc(F)c2)C(=O)N[C@H]2COC(=O)[C@@H]3C[C@@H](C)CN3C(=O)[C@H](C)NC(=O)[C@@H]3COCCN3C(=O)[C@@H]3C[C@@H](O)CN3C2=O)cc1 [Compound 317, (S)-3-(3,5-difluorophenyl)-N-((6aS,8R,12S,15aS,17R,21S,23aS)-8-hydroxy-17,21-dimethyl-6,11,15,20,23-pentaoxooctadecahydro-6H,11H,15H-[1,4]oxazino[3,4-i]dipyrrolo[2,1-c:2′,1′-l][1]oxa[4,7,10,13]tetraazacyclohexadecin-12-yl)-2-(3-(p-tolyl)ureido)propanamide] ({NH(4-Me-phenyl)-CO}-[Phe(3,5-F2)]S[Hyp][Morpholine(3S-CO)]A[Pro(4R-Me)]; ester 2-C) |  |  | 12.5 | 12.5 (≈ 10.1 µg/mL) | > 100 | 0.313 (≈ 0.254 µg/mL) | 
C[C@@H]1C[C@H]2C(=O)O[C@@H](C)[C@H](NC(=O)[C@H](Cc3cc(F)cc(F)c3)NC(=O)Nc3ccc(Cl)cc3F)C(=O)N3C[C@H](O)C[C@H]3C(=O)N3CCCC[C@H]3C(=O)N[C@@H](C)C(=O)N2C1 [Compound 329, (S)-2-(3-(4-chloro-2-fluorophenyl)ureido)-3-(3,5-difluorophenyl)-N-((2R,6S,8aS,14aS,16R,20S,21S,23aS)-16-hydroxy-2,6,21-trimethyl-5,8,14,19,23-pentaoxooctadecahydro-1H,5H,14H,19H-pyrido[2,1-i]dipyrrolo[2,1-c:2′,1′-l][1]oxa[4,7,10,13]tetraazacyclo-hexadecin-20-yl)propanamide] ({NH(4-Cl-2-F-phenyl)-CO}-[Phe(3,5-F2)][aThr][Hyp][Pip]A[Pro(4R-Me)]; ester 2-C) | 24.5 ± 2.5 |  | 50 | 0.039 (≈ 0.0336 µg/mL) |  |  | 0.039 (≈ 0.0336 µg/mL)
CC/C=C/C(=O)N[C@@H](Cc1cc(F)cc(F)c1)C(=O)N[C@@H]1C(=O)N2C[C@H](O)C[C@H]2C(=O)N2CCCC[C@H]2C(=O)N[C@@H](C)C(=O)N2C[C@H](C)C[C@H]2C(=O)O[C@H]1C [Compound 300] (X7-[Phe(3,5-F2)][aThr][Hyp][Pip]A[Pro(4R-Me)]; ester 2-C) |  |  | >20 | 2.5 (≈ 1.93 µg/mL) | > 100 | 0.039 (≈ 0.0301 µg/mL) | 
CCc1ccc(NC(=O)N[C@@H](Cc2cc(F)cc(F)c2)C(=O)N[C@@H]2C(=O)N3C[C@H](O)C[C@H]3C(=O)N3CCOC[C@H]3C(=O)N[C@@H](C)C(=O)N3C[C@H](C)C[C@H]3C(=O)O[C@H]2C)cc1 [Compound 320, (S)-3-(3,5-difluorophenyl)-2-(3-(4-ethylphenyl)ureido)-N-((6aS,8R,12S,13S,15aS,17R,21S,23aS)-8-hydroxy-13,17,21-trimethyl-6,11,15,20,23-pentaoxooctadecahydro-6H,11H,15H-[1,4]oxazino[3,4-i]dipyrrolo[2,1-c:2′,1′-l][1]oxa[4,7,10,13]-tetraazacyclohexadecin-12-yl)propanamide] ({NH(4-Et-phenyl)-CO}-[Phe(3,5-F2)][aThr][Hyp][Morpholine(3S-CO)]A[Pro(4R-Me)]; ester 2-C) | > 100 |  | 0.7812 | 0.781 (≈ 0.656 µg/mL) |  |  | 0.078 (≈ 0.0655 µg/mL)
Cc1cc(C)cc(NC(=O)N[C@@H](Cc2cc(F)cc(F)c2)C(=O)N[C@@H]2C(=O)N3CCC[C@H]3C(=O)N3CCCC[C@H]3C(=O)N[C@@H](C)C(=O)N3C[C@H](C)C[C@H]3C(=O)O[C@H]2C)c1 [Compound 304, (S)-3-(3,5-difluorophenyl)-2-(3-(3,5-dimethylphenyl)ureido)-N-((2R,6S,8aS,14aS,20S,21S,23aS)-2,6,21-trimethyl-5,8,14,19,23-pentaoxooctadecahydro-1H,5H,14H,19H-pyrido[2,1-i]dipyrrolo[2,1-c:2′,1′-l][1]oxa[4,7,10,13]tetraazacyclo-hexadecin-20-yl)propanamide] ({X6-CO}-[Phe(3,5-F2)][aThr]P[Pip]A[Pro(4R-Me)]; ester 2-C) | 21.3 ± 1.6 |  | >20 | 0.079 (≈ 0.0649 µg/mL) |  |  | 0.029 (≈ 0.0238 µg/mL)
C[C@H]1C[C@H]2C(=O)O[C@@H](C)[C@H](NC(=O)[C@H](Cc3cc(F)cc(F)c3)NC(=O)Nc3ccc(OC(F)(F)F)cc3)C(=O)N3CCC[C@H]3C(=O)N3CCOC[C@H]3C(=O)N[C@@H](C)C(=O)N2C1 [Compound 201, (S)-3-(3,5-difluorophenyl)-2-(3-(4-(trifluoromethoxy)phenyl)ureido)-N-((6aS,12S,13S,15aS,17S,21S,23aS)-13,17,21-trimethyl-6,11,15,20,23-pentaoxooctadecahydro-6H,11H,15H-[1,4]oxazino[3,4-i]dipyrrolo[2,1-c:2′,1′-l][1]oxa[4,7,10,13]tetraazacyclohexadecin-12-yl)propanamide] ({NH(4-OCF3-phenyl)-CO}-[Phe(3,5-F2)][aThr]P[Morpholine(3S-CO)]A[Pro(4S-Me)]; ester 2-C) | 26 ± 2.6 |  | 50 | 0.049 (≈ 0.0431 µg/mL) |  |  | 0.098 (≈ 0.0862 µg/mL)
C[C@@H]1C[C@H]2C(=O)O[C@@H](C)[C@H](NC(=O)[C@H](Cc3cc(F)cc(F)c3)NC(=O)Nc3ccc4c(c3)CCO4)C(=O)N3CCC[C@H]3C(=O)N3CCCC[C@H]3C(=O)N[C@@H](C)C(=O)N2C1 [Compound 305, (S)-3-(3,5-difluorophenyl)-2-(3-(2,3-dihydrobenzofuran-5-yl)ureido)-N-((2R,6S,8aS,14aS,20S,21S,23aS)-2,6,21-trimethyl-5,8,14,19,23-pentaoxooctadecahydro-1H,5H,14H,19H-pyrido[2,1-i]dipyrrolo[2,1-c:2′,1′-l][1]oxa[4,7,10,13]tetraazacyclo-hexadecin-20-yl)propanamide] ({X8-CO}-[Phe(3,5-F2)][aThr]P[Pip]A[Pro(4R-Me)]; ester 2-C) |  |  | >20 | 0.24 (≈ 0.201 µg/mL) | 39 ± 2.7 | 0.029 (≈ 0.0242 µg/mL) | 
CCCC/C=C/C(=O)N[C@@H](Cc1cc(F)cc(F)c1)C(=O)N[C@@H]1C(=O)N2C[C@H](O)C[C@H]2C(=O)N2CCOC[C@H]2C(=O)N[C@@H](C)C(=O)N2C[C@H](C)C[C@H]2C(=O)O[C@H]1C [Compound 309, (E)-N—((S)-3-(3,5-difluorophenyl)-1-(((6aS,8R,12S,13S,15aS,17R,21S,23aS)-8-hydroxy-13,17,21-trimethyl-6,11,15,20,23-pentaoxooctadecahydro-6H,11H,15H-[1,4]oxazino[3,4-i]dipyrrolo[2,1-c:2′,1′-l][1]oxa[4,7,10,13]tetraazacyclohexadecin-12-yl)amino)-1-oxopropan-2-yl)hept-2-enamide] ({Heptenoyl(2E)}-[Phe(3,5-F2)][aThr][Hyp][Morpholine(3S-CO)]A[Pro(4R-Me)]; ester 2-C) | > 100 |  | >20 | 0.625 (≈ 0.502 µg/mL) |  |  | 0.039 (≈ 0.0313 µg/mL)
CCCC/C=C/C(=O)N[C@@H](Cc1cc(F)cc(F)c1)C(=O)N[C@@H]1C(=O)N2CCC[C@H]2C(=O)N(C)[C@@H]([C@@H](C)O)C(=O)N[C@@H](C)C(=O)N2C[C@H](C)C[C@H]2C(=O)O[C@H]1C [Compound 308, (E)-N—((S)-3-(3,5-difluorophenyl)-1-(((2R,6S,9S,11aS,17S,18S,20aS)-9-((R)-1-hydroxyethyl)-2,6,10,18-tetramethyl-5,8,11,16,20-pentaoxohexadecahydro-1H,5H,16H-dipyrrolo[2,1-c:2′,1′-l][1]oxa[4,7,10,13]tetraazacyclohexadecin-17-yl)amino)-1-oxopropan-2-yl)hept-2-enamide] ({Heptenoyl(2E)}-[Phe(3,5-F2)][aThr]P[NMeT]A[Pro(4R-Me)]; ester 2-C) | 38.6 ± 1.1 |  | >20 | 0.039 (≈ 0.0308 µg/mL) |  |  | 0.039 (≈ 0.0308 µg/mL)
